According to ChEMBL document CHEMBL1137640, “In vitro antimycobacterial spectrum of a diarylquinoline ATP synthase inhibitor” (2007):
≈ marks a conversion by molar mass, not a printed value.

Legend:
Type in all cases: functional
[1] = system: Mycobacterium avium complex sp.; experiment: Antimicrobial activity against Mycobacterium avium complex isolate after 2 to 4 weeks by two fold dilution method
[2] = system: Mycobacterium simiae; experiment: Antimicrobial activity against Mycobacterium simiae after 2 to 4 weeks by two fold dilution method
[3] = system: Mycobacterium intracellulare; experiment: Antimicrobial activity against Mycobacterium intracellular 20 after 2 to 4 weeks by two fold dilution method
[4] = system: Mycobacterium kansasii; experiment: Antimicrobial activity against Mycobacterium kansasii after 2 to 4 weeks by two fold dilution method
[5] = system: Mycobacterium szulgai; experiment: Antimicrobial activity against Mycobacterium szulgai after 2 to 4 weeks by two fold dilution method
[6] = system: Mycobacterium avium; experiment: Antimicrobial activity against Mycobacterium avium 11 after 2 to 4 weeks by two fold dilution method
[7] = system: Mycolicibacterium mageritense; experiment: Antimicrobial activity against Mycobacterium mageritense after 2 to 4 weeks by two fold dilution method
[8] = system: Mycobacterium malmoense; experiment: Antimicrobial activity against Mycobacterium malmoense after 2 to 4 weeks by two fold dilution method
[9] = system: Mycobacterium avium; experiment: Antimicrobial activity against Mycobacterium avium 9 after 2 to 4 weeks by two fold dilution method
[10] = system: Mycolicibacterium fortuitum; experiment: Antimicrobial activity against Mycobacterium fortuitum after 2 to 4 weeks by two fold dilution method
[11] = system: Mycobacterium avium; experiment: Antimicrobial activity against Mycobacterium avium 16 after 2 to 4 weeks by two fold dilution method
[12] = system: Mycolicibacter terrae; experiment: Antimicrobial activity against Mycobacterium terrae after 2 to 4 weeks by two fold dilution method
[13] = system: Mycobacterium avium; experiment: Antimicrobial activity against Mycobacterium avium 2 after 2 to 4 weeks by two fold dilution method
[14] = system: Mycobacterium scrofulaceum; experiment: Antimicrobial activity against Mycobacterium scrofulaceum after 2 to 4 weeks by two fold dilution method
[15] = system: Mycobacterium shimoidei; experiment: Antimicrobial activity against Mycobacterium shimoidei after 2 to 4 weeks by two fold dilution method
[16] = system: Mycobacterium avium; experiment: Antimicrobial activity against Mycobacterium avium 4 after 2 to 4 weeks by two fold dilution method
[17] = system: Mycolicibacterium novocastrense; experiment: Antimicrobial activity against R207910 resistant Mycobacterium novocastrense after 2 to 4 weeks by two fold dilution method
[18] = system: Mycobacterium conspicuum; experiment: Antimicrobial activity against Mycobacterium conspicuum after 2 to 4 weeks by two fold dilution method
[19] = system: Mycobacterium avium; experiment: Antimicrobial activity against Mycobacterium avium 6 after 2 to 4 weeks by two fold dilution method
[20] = system: Mycobacterium avium; experiment: Antimicrobial activity against Mycobacterium avium 21 after 2 to 4 weeks by two fold dilution method
[21] = system: Mycobacterium gordonae; experiment: Antimicrobial activity against Mycobacterium gordonae after 2 to 4 weeks by two fold dilution method
[22] = system: Mycobacterium intracellulare; experiment: Antimicrobial activity against Mycobacterium intracellular 7 after 2 to 4 weeks by two fold dilution method
[23] = system: Mycolicibacter hiberniae; experiment: Antimicrobial activity against Mycobacterium hiberniae after 2 to 4 weeks by two fold dilution method
[24] = system: Mycobacterium tuberculosis; experiment: Antimicrobial activity against drug-susceptible Mycobacterium tuberculosis isolate after 2 to 4 weeks by two fold dilution method
[25] = system: Mycobacterium avium; experiment: Antimicrobial activity against Mycobacterium avium 8 after 2 to 4 weeks by two fold dilution method
[26] = system: Mycolicibacterium phlei; experiment: Antimicrobial activity against Mycobacterium phlei after 2 to 4 weeks by two fold dilution method
[27] = system: Mycolicibacterium vaccae; experiment: Antimicrobial activity against Mycobacterium vaccae after 2 to 4 weeks by two fold dilution method
[28] = system: Mycobacterium avium; experiment: Antimicrobial activity against Mycobacterium avium 1 after 2 to 4 weeks by two fold dilution method
[29] = system: Mycobacterium xenopi; experiment: Antimicrobial activity against Mycobacterium xenopi after 2 to 4 weeks by two fold dilution method
[30] = system: Mycobacterium intracellulare; experiment: Antimicrobial activity against Mycobacterium intracellular 14 after 2 to 4 weeks by two fold dilution method
[31] = system: Mycobacterium avium; experiment: Antimicrobial activity against Mycobacterium avium 23 after 2 to 4 weeks by two fold dilution method
[32] = system: Mycobacteroides chelonae; experiment: Antimicrobial activity against Mycobacterium chelonae after 2 to 4 weeks by two fold dilution method
[33] = system: Mycobacterium interjectum; experiment: Antimicrobial activity against Mycobacterium interjectum after 2 to 4 weeks by two fold dilution method
[34] = Mycobacterium avium complex sp.

SMILES: COc1nc2ccc(Br)cc2cc1[C@@H](c1ccccc1)[C@@](O)(CCN(C)C)c1cccc2ccccc12 [BEDAQUILINE]
- MI50 [1]: 0.03 µg/mL
- MIC [1, 34]: 0.03 µg/mL (≈ 0.054 µM)
- MIC90 [1, 34]: 0.13 µg/mL (≈ 0.234 µM)
- MIC [2]: 0.03 µg/mL (≈ 0.054 µM)
- MIC [3]: 0.03 µg/mL (≈ 0.054 µM)
- MIC [4]: 0.03 µg/mL (≈ 0.054 µM)
- MIC [5]: 0.03 µg/mL (≈ 0.054 µM)
- MIC [6]: 0.03 µg/mL (≈ 0.054 µM)
- MIC [7]: 0.03 µg/mL (≈ 0.054 µM)
- MIC [8]: 0.5 µg/mL (≈ 0.9 µM)
- MIC [9]: 0.13 µg/mL (≈ 0.234 µM)
- MIC [10]: 0.13 µg/mL (≈ 0.234 µM)
- MIC [11]: 0.06 µg/mL (≈ 0.108 µM)
- MIC [12]: 0.03 µg/mL (≈ 0.054 µM)
- MIC [13]: 0.03 µg/mL (≈ 0.054 µM)
- MIC [14]: 0.03 µg/mL (≈ 0.054 µM)
- MIC [15]: 8 µg/mL (≈ 14.4 µM)
- MIC [16]: 0.03 µg/mL (≈ 0.054 µM)
- MIC [17]: 8 µg/mL (≈ 14.4 µM)
- MIC [18]: 0.13 µg/mL (≈ 0.234 µM)
- MIC [19]: 0.13 µg/mL (≈ 0.234 µM)
- MIC [20]: 0.03 µg/mL (≈ 0.054 µM)
- MIC [21]: 0.03 µg/mL (≈ 0.054 µM)
- MIC [22]: 0.03 µg/mL (≈ 0.054 µM)
- MIC [23]: 0.03 µg/mL (≈ 0.054 µM)
- MIC [24]: 0.002 µg/mL (≈ 0.0036 µM)
- MIC50 [24]: 0.03 µg/mL (≈ 0.054 µM)
- MIC90 [24]: 0.06 µg/mL (≈ 0.108 µM)
- MIC [25]: 0.03 µg/mL (≈ 0.054 µM)
- MIC [26]: 0.03 µg/mL (≈ 0.054 µM)
- MIC [27]: 0.03 µg/mL (≈ 0.054 µM)
- MIC [28]: 0.03 µg/mL (≈ 0.054 µM)
- MIC [29]: 4 µg/mL (≈ 7.2 µM)
- MIC [30]: 0.03 µg/mL (≈ 0.054 µM)
- MIC [31]: 0.03 µg/mL (≈ 0.054 µM)
- MIC [32]: 0.06 µg/mL (≈ 0.108 µM)
- MIC [33]: 0.03 µg/mL (≈ 0.054 µM)
